US9499523B2, “Phosphatidylinositol 3-kinase inhibitors” (Gilead Sciences, Inc., priority 2014, dated 2016)

How the values were obtained:
PI3Kβ = PI3Kβ (Homo sapiens (Human), UniProt P42338); test: TR-FRET enzymatic assay of PI3K isoforms, PI3Kβ; assay type: biochemical; settings: for PI3Kγ/PI3Kβ ratio: ratio of IC50 values, selectivity for PI3Kβ over PI3Kγ; for IC50: TR-FRET, 2×Km ATP, 30 minutes at 25° C.
Procedure: (§1) The compounds of formula (I) were characterized for their enzymatic activity against the PI3K isoforms. The activities were measured using a time-resolved fluorescence resonance energy transfer (TR-FRET) assay. TR-FRET monitored the formation of 3,4,5-inositol triphosphate molecule that competed with fluorescently labeled PIP3 for binding to the GRP-1 pleckstrin homology domain protein.
(§2) Class I PI3K isoforms were expressed and purified as heterodimeric recombinant proteins. All assay reagents and buffers for the TR-FRET assay were purchased from Millipore. […] The reactions were terminated with a final concentration of 10 mM EDTA, 10 nM labeled-PIP3, and 35 nM Europium labeled GRP-1 detector protein before reading TR-FRET on an Envision plate reader (Ex: 340 nm; Em: 615/665 nm; 100 μs delay and 500 μs read window).
(§3) The results were normalized based on positive (1 μM wortmanin) and negative (DMSO) controls, and the IC50 values for PI3K α, β, δ and γ were calculated from the fit of the dose-response curves to a four-parameter equation.

PI3Kγ = PI3Kγ (Homo sapiens (Human), UniProt P48736); test: TR-FRET enzymatic assay of PI3K isoforms, PI3Kγ; assay type: biochemical; settings: 2×Km ATP, PI3Kγ at 2 nM, 30 minutes at 25° C.
Chain of PI3Kγ (P48736 whole entry, canonical isoform): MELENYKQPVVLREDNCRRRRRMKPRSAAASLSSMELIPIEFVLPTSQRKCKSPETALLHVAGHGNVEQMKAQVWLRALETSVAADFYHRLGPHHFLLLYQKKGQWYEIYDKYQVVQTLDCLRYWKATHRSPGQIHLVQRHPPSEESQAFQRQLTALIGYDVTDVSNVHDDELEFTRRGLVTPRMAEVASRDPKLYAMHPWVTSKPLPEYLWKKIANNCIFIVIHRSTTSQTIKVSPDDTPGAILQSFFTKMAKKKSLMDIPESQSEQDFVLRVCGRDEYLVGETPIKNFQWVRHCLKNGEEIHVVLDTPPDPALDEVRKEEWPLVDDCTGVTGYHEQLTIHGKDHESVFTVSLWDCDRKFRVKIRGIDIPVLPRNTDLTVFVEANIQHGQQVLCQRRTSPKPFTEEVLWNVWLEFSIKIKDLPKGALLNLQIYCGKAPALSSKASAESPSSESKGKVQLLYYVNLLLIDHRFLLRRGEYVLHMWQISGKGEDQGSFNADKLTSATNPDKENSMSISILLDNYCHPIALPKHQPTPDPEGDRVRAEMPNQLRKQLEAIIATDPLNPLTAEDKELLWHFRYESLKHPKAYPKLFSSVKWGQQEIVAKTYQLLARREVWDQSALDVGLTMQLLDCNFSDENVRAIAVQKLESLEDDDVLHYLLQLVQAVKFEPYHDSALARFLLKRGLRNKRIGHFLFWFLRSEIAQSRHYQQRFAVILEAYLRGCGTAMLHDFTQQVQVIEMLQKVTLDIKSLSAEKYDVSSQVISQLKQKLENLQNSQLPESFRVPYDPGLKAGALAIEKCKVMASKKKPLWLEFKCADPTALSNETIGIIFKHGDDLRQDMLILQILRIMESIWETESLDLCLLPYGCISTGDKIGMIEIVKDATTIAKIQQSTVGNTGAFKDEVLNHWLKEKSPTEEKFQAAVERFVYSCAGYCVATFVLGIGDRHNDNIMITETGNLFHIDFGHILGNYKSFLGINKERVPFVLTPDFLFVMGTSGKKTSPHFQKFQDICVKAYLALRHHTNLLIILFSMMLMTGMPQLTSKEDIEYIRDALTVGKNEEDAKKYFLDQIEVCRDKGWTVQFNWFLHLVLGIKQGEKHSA
Procedure: as §1, §2, §3

PI3Kδ = PI3Kδ (Homo sapiens (Human), UniProt O00329); test: TR-FRET enzymatic assay of PI3K isoforms, PI3Kδ; settings: read-out: PI3Kδ IC50, 2×Km ATP, 30 minutes at 25° C.
Chain of PI3Kδ (O00329 whole entry, canonical isoform): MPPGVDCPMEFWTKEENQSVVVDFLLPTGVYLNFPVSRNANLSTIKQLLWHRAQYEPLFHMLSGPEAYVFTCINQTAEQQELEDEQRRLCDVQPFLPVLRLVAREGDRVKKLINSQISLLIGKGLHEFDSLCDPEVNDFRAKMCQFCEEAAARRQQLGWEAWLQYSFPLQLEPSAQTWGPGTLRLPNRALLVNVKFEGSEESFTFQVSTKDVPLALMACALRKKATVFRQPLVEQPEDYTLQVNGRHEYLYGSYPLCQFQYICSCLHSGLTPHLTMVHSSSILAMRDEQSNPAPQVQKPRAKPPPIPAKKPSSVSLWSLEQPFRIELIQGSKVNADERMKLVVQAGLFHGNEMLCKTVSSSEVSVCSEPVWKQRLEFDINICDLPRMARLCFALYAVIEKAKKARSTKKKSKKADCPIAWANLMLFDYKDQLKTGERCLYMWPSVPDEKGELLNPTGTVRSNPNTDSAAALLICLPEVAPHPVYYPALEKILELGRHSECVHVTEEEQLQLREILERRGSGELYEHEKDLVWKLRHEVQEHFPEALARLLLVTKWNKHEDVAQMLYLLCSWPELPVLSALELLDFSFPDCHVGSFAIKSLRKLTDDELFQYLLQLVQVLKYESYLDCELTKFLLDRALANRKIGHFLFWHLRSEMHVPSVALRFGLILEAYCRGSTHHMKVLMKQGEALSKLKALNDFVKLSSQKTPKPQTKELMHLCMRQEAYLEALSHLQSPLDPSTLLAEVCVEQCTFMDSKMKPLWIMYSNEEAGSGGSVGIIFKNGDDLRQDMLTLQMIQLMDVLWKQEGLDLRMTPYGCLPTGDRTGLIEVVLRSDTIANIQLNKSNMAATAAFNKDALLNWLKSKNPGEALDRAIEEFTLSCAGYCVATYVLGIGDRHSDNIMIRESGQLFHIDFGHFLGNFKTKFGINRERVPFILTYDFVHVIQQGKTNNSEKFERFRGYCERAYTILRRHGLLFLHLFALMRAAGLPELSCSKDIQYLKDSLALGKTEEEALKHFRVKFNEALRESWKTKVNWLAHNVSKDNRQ
Chain of PI3Kδ (P27986 whole entry partner, canonical isoform): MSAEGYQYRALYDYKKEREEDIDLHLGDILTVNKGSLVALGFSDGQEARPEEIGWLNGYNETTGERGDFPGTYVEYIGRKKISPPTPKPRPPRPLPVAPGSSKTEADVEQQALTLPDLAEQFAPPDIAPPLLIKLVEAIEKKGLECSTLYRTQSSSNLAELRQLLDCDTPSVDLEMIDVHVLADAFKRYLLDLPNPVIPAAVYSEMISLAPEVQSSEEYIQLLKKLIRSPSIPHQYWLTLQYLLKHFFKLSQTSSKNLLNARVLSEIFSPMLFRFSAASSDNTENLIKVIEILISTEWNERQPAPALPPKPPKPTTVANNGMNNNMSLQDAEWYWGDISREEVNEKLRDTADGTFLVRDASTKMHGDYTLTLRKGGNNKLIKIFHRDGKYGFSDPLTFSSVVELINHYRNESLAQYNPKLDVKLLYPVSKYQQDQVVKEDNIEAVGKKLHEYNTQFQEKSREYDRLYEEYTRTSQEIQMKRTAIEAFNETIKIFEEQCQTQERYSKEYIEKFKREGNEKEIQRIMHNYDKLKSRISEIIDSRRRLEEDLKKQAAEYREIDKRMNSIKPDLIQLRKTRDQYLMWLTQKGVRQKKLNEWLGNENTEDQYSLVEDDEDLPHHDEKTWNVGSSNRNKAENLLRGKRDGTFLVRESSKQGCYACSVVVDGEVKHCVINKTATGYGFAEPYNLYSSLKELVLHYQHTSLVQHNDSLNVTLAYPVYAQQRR
Procedure: as §1, §2, §3

Chain of PI3Kβ (P42338 whole entry, canonical isoform): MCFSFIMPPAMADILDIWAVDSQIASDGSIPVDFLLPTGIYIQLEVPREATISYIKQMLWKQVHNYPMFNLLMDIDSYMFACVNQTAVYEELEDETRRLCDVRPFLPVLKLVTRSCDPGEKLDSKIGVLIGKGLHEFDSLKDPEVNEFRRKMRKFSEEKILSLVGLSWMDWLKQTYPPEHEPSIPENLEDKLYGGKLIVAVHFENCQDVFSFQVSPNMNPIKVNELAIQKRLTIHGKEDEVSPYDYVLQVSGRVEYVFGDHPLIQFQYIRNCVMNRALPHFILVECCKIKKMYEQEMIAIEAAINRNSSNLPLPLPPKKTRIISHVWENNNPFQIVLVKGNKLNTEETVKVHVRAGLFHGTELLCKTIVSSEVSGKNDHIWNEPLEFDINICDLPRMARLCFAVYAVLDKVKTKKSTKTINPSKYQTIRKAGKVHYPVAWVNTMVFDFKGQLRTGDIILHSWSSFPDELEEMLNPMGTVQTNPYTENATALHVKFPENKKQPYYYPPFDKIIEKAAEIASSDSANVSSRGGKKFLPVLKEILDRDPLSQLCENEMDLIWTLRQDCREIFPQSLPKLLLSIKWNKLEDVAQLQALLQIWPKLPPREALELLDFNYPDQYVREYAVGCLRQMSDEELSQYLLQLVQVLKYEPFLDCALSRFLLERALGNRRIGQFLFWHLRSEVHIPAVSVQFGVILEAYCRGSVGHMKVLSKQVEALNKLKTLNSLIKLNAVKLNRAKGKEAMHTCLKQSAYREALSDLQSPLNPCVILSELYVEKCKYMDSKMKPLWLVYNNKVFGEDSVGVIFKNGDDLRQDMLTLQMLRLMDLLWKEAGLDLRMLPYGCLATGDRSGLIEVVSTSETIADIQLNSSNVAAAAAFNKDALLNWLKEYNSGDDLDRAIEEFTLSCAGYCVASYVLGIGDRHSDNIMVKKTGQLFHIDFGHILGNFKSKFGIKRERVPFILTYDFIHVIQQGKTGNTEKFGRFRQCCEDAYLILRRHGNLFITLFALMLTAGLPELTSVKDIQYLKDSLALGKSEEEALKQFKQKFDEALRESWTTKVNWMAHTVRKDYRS
Chain of PI3Kβ (P27986 whole entry partner, canonical isoform): as the sequence (P27986 whole entry partner, canonical isoform) above

Compound	PI3Kγ/PI3Kβ ratio (PI3Kβ)	IC50 (PI3Kβ) [nM]	IC50 (PI3Kγ) [nM]	IC50 (PI3Kδ) [nM]
C[C@H](Nc1nc(N)nc(N)c1C#N)c1nc2cccc(Cl)c2c(=O)n1-c1ccccc1 [(S)-2,4-diamino-6-((1-(5-chloro-4-oxo-3-phenyl-3,4-dihydroquinazolin-2-yl)ethyl)amino)pyrimidine-5-carbonitrile, reference compound]	less than 1	–	–	–
C[C@H](Nc1nc(N)nc(N)c1Cl)c1nc2c(F)ccc(Cl)c2c(=O)n1-c1cnc(N)cn1 [Compound 1, (S)-3-(5-aminopyrazin-2-yl)-5-chlor-2-(1-((2,6-diamino-5-chloropyrimidin-4-yl)amino)ethyl)-8-fluoroquinazolin-4(3H)-one]	–	54	> 10000	–
C[C@H](Nc1nc(N)nc(N)c1C#N)c1nc2c(F)ccc(Cl)c2c(=O)n1-c1cnc(N)cn1 [Compound 2, (S)-2,4-diamino-6-((1-(3-(5-aminopyrazin-2-yl)-5-chloro-8-fluoro-4-oxo-3,4-dihydroquinazolin-2-yl)ethyl)amino)pyrimidine-5-carbonitrile]	–	4.4	630	3.5
C[C@H](Nc1ncnc(N)c1C#N)c1nc2c(F)ccc(Cl)c2c(=O)n1-c1cnc(N)cn1 [Compound 3, (S)-4-amino-6-((1-(3-(5-aminopyrazin-2-yl)-5-chloro-8-fluoro-4-oxo-3,4-dihydroquinazolin-2-yl)ethyl)amino)pyrimidine-5-carbonitrile]	–	74	> 10000	11
C[C@H](Nc1ncnc2[nH]nnc12)c1nc2c(F)cccc2c(=O)n1-c1cnc(N)cn1 [Compound 4, (S)-2-(1-((3H-[1,2,3]triazolo[4,5-d]pyrimidin-7-yl)amino)ethyl)-3-(5-aminopyrazin-2-yl)-8-fluoroquinazolin-4(3H)-one]	–	> 10000	> 10000	2700
C[C@H](Nc1ncnc2occc12)c1nc2c(F)ccc(Cl)c2c(=O)n1-c1cnc(N)cn1 [Compound 5, (S)-3-(5-amninopyrazin-2-yl)-5-chloro-8-fluoro-2-(1-(furo[2,3-d]pyrimidin-4-ylamino)ethyl)quinazolin-4(3H)-one]	–	5800	> 10000	2300
C[C@H](Nc1nc(N)nc(N)c1C#N)c1nc2cccc(Cl)c2c(=O)n1-c1cnc(N)cn1 [Compound 6, (S)-2,4-diamino-6-((1-(3-(5-aminopyrazin-2-yl)-5-chloro-4-oxo-3,4-dihydroquinazolin-2-yl)ethyl)amino)pyrimidine-5-carbonitrile]	–	2	280	2
C[C@H](Nc1nc(N)nc(N)c1Cl)c1nc2cccc(Cl)c2c(=O)n1-c1cnc(N)cn1 [Compound 7, (S)-3-(5-aminopyrazin-2-yl)-5-chloro-2-(1-((2,6-diamino-5-chloropyrimidin-4-yl)amino)ethyl)quinazolin-4(3H)-one]	–	47	4000	24
Nc1cnc(-n2c([C@@H](Nc3nc(N)nc(N)c3Cl)C3CC3)nc3cccc(Cl)c3c2=O)cn1 [Compound 8, (S)-3-(5-aminopyrazin-2-yl)-5-chloro-2-(cyclopropyl((2,6-diamino-5-chloropyrimidin-4-yl)amino)methyl)quinazolin-4(3H)-one]	–	190	> 10000	24
N#Cc1c(N)nc(N)nc1N[C@H](c1nc2cccc(Cl)c2c(=O)n1-c1cnc(N)cn1)C1CC1 [Compound 9]	–	4.2	900	2.7
N#Cc1c(N)nc(N)nc1N[C@H](c1nc2c(Cl)ccc(Cl)c2c(=O)n1-c1cnc(N)cn1)C1CC1 [Compound 10, (S)-2,4-diamino-6-(((3-(5-aminopyrazin-2-yl)-5,8-dichloro-4-oxo-3,4-dihydroquinazolin-2-yl)(cyclopropyl)methyl)amino)pyrimidine-5-carbonitrile]	–	3.6	3100	2.4
C[C@H](Nc1nc(N)nc(N)c1C#N)c1nc2c(Cl)ccc(Cl)c2c(=O)n1-c1cnc(N)cn1 [Compound 11, (S)-2,4-diamino-6-((1-(3-(5-aminopyrazin-2-yl)-5,8-dichloro-4-oxo-3,4-dihydroquinazolin-2-yl)ethyl)amino)pyrimidine-5-carbonitrile]	–	1.8	1500	1.9
Nc1cnc(-n2c([C@@H](Nc3nc(N)nc(N)c3Cl)C3CC3)nc3c(Cl)ccc(Cl)c3c2=O)cn1 [Compound 12, (S)-3-(5-aminopyrazin-2-yl)-5,8-dichloro-2-(cyclopropyl((2,6-diamino-5-chloropyrimidin-4-yl)amino)methyl)quinazolin-4(3H)-one]	–	1200	> 10000	97
C[C@H](Nc1nc(N)nc(N)c1Cl)c1nc2c(Cl)ccc(Cl)c2c(=O)n1-c1cnc(N)cn1 [Compound 13, (S)-3-(5-aminopyrazin-2-yl)-5,8-dichloro-2-(1-((2,6-diamino-5-chloropyrimidin-4-yl)amino)ethyl)quinazolin-4(3H)-one]	–	170	> 10000	31
C[C@H](Nc1nc(N)nc(C(F)F)c1C#N)c1nc2c(Cl)cc(F)cc2c(=O)n1-c1cnc(N)cn1 [Compound 14, (S)-2-amino-4-((1-(3-(5-aminopyrazin-2-yl)-8-chloro-6-fluoro-4-oxo-3,4-dihydroquinazolin-2-yl)ethyl)amino)-6-(difluoromethyl)pyrimidine-5-carbonitrile]	–	200	> 10000	340
C[C@H](Nc1nc(N)nc(N)c1C#N)c1nc2c(F)cc(F)cc2c(=O)n1-c1cnc(N)cn1 [Compound 15, (S)-2,4-Diamino-6-((1-(3-(5-aminopyrazin-2-yl)-6,8-difluoro-4-oxo-3,4-dihydroquinazolin-2-yl)ethyl)amino)pyrimidine-5-carbonitrile]	–	9.8	1500	53
C[C@H](Nc1nc(N)nc(N)c1C#N)c1nc2c(Cl)cc(F)cc2c(=O)n1-c1cnc(N)cn1 [Compound 17]	–	14	4900	32
Nc1cnc(-n2c([C@@H](Nc3ncnc(N)c3Cl)C3CC3)nc3cccc(Cl)c3c2=O)cn1 [Compound 21, (S)-2-(((6-Amino-5-chloropyrimidin-4-yl)amino)(cyclopropyl)methyl)-3-(5-aminopyrazin-2-yl)-5-chloroquinazolin-4(3H)-one]	–	720	> 10000	–
C[C@H](Nc1nc(N)nc(N)c1C#N)c1nc2cccc(Cl)c2c(=O)n1-c1cccnc1 [Compound X, (S)-2,4-diamino-6-((1-(5-chloro-4-oxo-3-(pyridin-3-yl)-3,4-dihydroquinazolin-2-yl)ethyl)amino)pyrimidine-5-carbonitrile, reference compound]	0.6	–	–	–
